Measurements: patent publication US12516364B2, “Device for testing bacterium, and method for testing bacterium” (Hitachi High-Tech Corporation, priority 2018, dated 2026)

Tested on: Escherichia coli
Experiment: antibacterial susceptibility determination from microscopic images (luminance value and area of bacteria)
Type: cell-based
Settings: ampicillin 2 μg/mL; 0 to 360 minutes; with or without minimum filter; growth has not occurred over the entire image
Method: The test plate 102 has a plurality of wells, and each well holds a medium component that facilitate the growth of bacteria and an antibacterial drug to be tested. After a bacterial solution containing the bacteria to be tested is dispensed to each well, the test plate 102 is introduced into the bacteria test apparatus 100. The bacteria test apparatus 100 is adjusted to a temperature, such as 37° C., at which the bacteria can grow.
The illuminator 101 illuminates the test plate 102 with light. As the illuminator 101, a light source of white light such as a lamp or a light source of light in a specific wavelength range such as an LED may be used. Light passing through each well of the test plate 102 is condensed by the objective lens 103 and measured as an image by the imager 104. […] Further, images of a plurality of points in each well may be captured, or alternatively, a plurality of images of the inside of the culture solution away from the bottom surface of each well of the test plate 102 may be measured. […]
The determiner 1055 acquires the new feature from the arithmetic unit 1051 and outputs the determination result for each well. […] The mean of luminance values is calculated from the image captured at the preset determination time, and a difference from the mean of luminance values at an initial culture stage is calculated. […]

Structure (SMILES): CC1(C)S[C@@H]2[C@H](NC(=O)[C@H](N)c3ccccc3)C(=O)N2[C@H]1C(=O)O [ampicillin]
- time variation in mode of luminance values: does not vary
